From ChEMBL document CHEMBL5715260, “Selectivity Literature for EUbOPEN Chemogenomic Library” (2024)
One block for each compound: values may come before it.

How the values were obtained:
[1] = molecular target: T1, Hepatocyte nuclear factor 4-alpha (Homo sapiens) (UniProt P41235); test: Selectivity interaction (Reporter gene assay) EUB0000573a HNF4A; design: recommended concentration 1 uM
T1 sequence (whole entry): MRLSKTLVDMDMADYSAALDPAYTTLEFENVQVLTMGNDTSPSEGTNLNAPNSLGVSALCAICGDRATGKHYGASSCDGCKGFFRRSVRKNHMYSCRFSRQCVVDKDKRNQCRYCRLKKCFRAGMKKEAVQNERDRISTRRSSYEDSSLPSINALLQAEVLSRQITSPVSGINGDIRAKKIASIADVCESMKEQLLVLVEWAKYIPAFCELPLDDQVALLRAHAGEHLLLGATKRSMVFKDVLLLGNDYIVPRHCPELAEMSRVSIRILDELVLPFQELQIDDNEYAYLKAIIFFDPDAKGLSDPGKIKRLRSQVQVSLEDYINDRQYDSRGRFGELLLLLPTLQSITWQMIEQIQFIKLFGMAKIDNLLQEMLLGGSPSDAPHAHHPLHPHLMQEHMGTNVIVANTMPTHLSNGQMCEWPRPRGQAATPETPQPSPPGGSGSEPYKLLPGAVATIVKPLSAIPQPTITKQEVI

[2] = molecular target: T2, Nuclear receptor subfamily 2 group C member 1 (Homo sapiens) (UniProt P13056); test: Selectivity interaction (Reporter gene assay) EUB0000573a NR2C1; design: recommended concentration 1 uM
T2 sequence (whole entry): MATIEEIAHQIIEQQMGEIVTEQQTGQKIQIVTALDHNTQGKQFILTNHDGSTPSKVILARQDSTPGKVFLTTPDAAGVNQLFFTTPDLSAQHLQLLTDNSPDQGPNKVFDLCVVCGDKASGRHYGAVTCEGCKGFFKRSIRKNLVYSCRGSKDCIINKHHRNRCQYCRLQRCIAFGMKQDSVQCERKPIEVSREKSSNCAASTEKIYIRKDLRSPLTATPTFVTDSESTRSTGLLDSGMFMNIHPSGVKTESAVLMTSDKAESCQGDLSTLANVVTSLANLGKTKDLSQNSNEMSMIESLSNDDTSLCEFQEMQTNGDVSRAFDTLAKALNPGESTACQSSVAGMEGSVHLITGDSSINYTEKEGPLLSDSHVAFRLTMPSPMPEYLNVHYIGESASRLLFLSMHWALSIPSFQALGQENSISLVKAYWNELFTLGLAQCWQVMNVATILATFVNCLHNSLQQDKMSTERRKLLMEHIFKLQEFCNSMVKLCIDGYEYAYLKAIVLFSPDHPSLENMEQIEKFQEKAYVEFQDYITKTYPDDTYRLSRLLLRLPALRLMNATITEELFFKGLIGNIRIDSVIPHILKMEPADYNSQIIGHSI

[3] = molecular target: Nuclear receptor subfamily 2 group E member 1 (Homo sapiens) (UniProt Q9Y466); test: Selectivity interaction (Reporter gene assay) EUB0000573a NR2E1; design: recommended concentration 1 uM
[4] = molecular target: Nuclear receptor subfamily 4immunitygroup A member 1 (Homo sapiens) (UniProt P22736); test: Selectivity interaction (Reporter gene assay) EUB0000573a NR4A1; design: recommended concentration 1 uM
[5] = molecular target: Steroidogenic factor 1 (Homo sapiens) (UniProt Q13285); test: Selectivity interaction (Reporter gene assay) EUB0000573a NR5A1; design: recommended concentration 1 uM
[6] = molecular target: T3, Alpha trans-inducing protein (Human alphaherpesvirus 1) (UniProt A0A5J6DW59); test: Selectivity interaction (Reporter gene assay) EUB0000573a UL48; design: recommended concentration 1 uM
[7] = molecular target: T4, Retinoic acid receptor RXR-alpha (Homo sapiens) (UniProt P19793); test: Selectivity interaction (Reporter gene assay) EUB0000573a RXRA; design: recommended concentration 1 uM; details: reference bexarotene 1 uM, Selectivity number of off-targets 0.0, Selectivity number of targets 1.0, Source Knowledge inhouse
T4 sequence (whole entry): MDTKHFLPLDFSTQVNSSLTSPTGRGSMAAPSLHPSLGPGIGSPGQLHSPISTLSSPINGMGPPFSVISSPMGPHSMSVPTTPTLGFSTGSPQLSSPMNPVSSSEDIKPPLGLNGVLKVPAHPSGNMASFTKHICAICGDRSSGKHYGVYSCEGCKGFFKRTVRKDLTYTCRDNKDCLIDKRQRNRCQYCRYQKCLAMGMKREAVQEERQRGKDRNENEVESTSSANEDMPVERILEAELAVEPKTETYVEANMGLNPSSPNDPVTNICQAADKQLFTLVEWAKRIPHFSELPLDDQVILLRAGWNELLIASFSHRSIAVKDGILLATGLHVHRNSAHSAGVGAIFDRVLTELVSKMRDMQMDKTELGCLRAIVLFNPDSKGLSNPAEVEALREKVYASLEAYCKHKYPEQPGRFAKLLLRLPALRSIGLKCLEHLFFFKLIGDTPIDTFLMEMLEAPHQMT

[8] = molecular target: T5, Peroxisome proliferator-activated receptor gamma (Homo sapiens) (UniProt P37231); test: Selectivity interaction (Reporter gene assay) EUB0000581a PPARG; design: recommended concentration 1 uM; details: screened at recom. conc., Selectivity number of off-targets 1.0, Selectivity number of targets 19.0, Source Knowledge inhouse
T5 sequence (whole entry): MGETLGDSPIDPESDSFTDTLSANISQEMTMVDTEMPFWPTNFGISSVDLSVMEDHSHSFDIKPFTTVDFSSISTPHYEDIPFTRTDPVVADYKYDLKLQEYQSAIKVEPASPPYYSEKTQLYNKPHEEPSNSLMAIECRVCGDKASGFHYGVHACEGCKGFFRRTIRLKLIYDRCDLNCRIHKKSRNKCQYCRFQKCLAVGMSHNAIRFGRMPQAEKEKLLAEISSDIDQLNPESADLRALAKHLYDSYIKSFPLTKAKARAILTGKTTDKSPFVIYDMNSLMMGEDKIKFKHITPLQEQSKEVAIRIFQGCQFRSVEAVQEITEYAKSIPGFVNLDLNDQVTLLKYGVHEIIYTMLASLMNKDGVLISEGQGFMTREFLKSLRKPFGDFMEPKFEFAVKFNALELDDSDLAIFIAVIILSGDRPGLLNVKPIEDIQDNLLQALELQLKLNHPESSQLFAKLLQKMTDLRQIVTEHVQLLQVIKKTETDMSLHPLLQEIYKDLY

[9] = molecular target: T1, Hepatocyte nuclear factor 4-alpha (Homo sapiens); test: Selectivity interaction (Reporter gene assay) EUB0000581a HNF4A; design: recommended concentration 1 uM
[10] = molecular target: T2, Nuclear receptor subfamily 2 group C member 1 (Homo sapiens); test: Selectivity interaction (Reporter gene assay) EUB0000581a NR2C1; design: recommended concentration 1 uM
[11] = molecular target: Nuclear receptor subfamily 2 group E member 1 (Homo sapiens) (UniProt Q9Y466); test: Selectivity interaction (Reporter gene assay) EUB0000581a NR2E1; design: recommended concentration 1 uM
[12] = molecular target: Nuclear receptor subfamily 4immunitygroup A member 1 (Homo sapiens) (UniProt P22736); test: Selectivity interaction (Reporter gene assay) EUB0000581a NR4A1; design: recommended concentration 1 uM
[13] = molecular target: Steroidogenic factor 1 (Homo sapiens) (UniProt Q13285); test: Selectivity interaction (Reporter gene assay) EUB0000581a NR5A1; design: recommended concentration 1 uM
[14] = molecular target: T3, Alpha trans-inducing protein (Human alphaherpesvirus 1); test: Selectivity interaction (Reporter gene assay) EUB0000581a UL48; design: recommended concentration 1 uM
[15] = molecular target: T4, Retinoic acid receptor RXR-alpha (Homo sapiens); test: Selectivity interaction (Reporter gene assay) EUB0000581a RXRA; design: recommended concentration 1 uM; details: reference bexarotene 1 uM, Selectivity number of off-targets 0.0, Selectivity number of targets 1.0, Source Knowledge inhouse
[16] = molecular target: T1, Hepatocyte nuclear factor 4-alpha (Homo sapiens); test: Selectivity interaction (Reporter gene assay) EUB0000574a HNF4A; design: recommended concentration 10 uM
[17] = molecular target: T2, Nuclear receptor subfamily 2 group C member 1 (Homo sapiens); test: Selectivity interaction (Reporter gene assay) EUB0000574a NR2C1; design: recommended concentration 10 uM
[18] = molecular target: Nuclear receptor subfamily 2 group E member 1 (Homo sapiens) (UniProt Q9Y466); test: Selectivity interaction (Reporter gene assay) EUB0000574a NR2E1; design: recommended concentration 10 uM
[19] = molecular target: Nuclear receptor subfamily 4immunitygroup A member 1 (Homo sapiens) (UniProt P22736); test: Selectivity interaction (Reporter gene assay) EUB0000574a NR4A1; design: recommended concentration 10 uM
[20] = molecular target: Steroidogenic factor 1 (Homo sapiens) (UniProt Q13285); test: Selectivity interaction (Reporter gene assay) EUB0000574a NR5A1; design: recommended concentration 10 uM
[21] = molecular target: T3, Alpha trans-inducing protein (Human alphaherpesvirus 1); test: Selectivity interaction (Reporter gene assay) EUB0000574a UL48; design: recommended concentration 10 uM
[22] = molecular target: T4, Retinoic acid receptor RXR-alpha (Homo sapiens); test: Selectivity interaction (Reporter gene assay) EUB0000574a RXRA; design: recommended concentration 10 uM; details: reference bexarotene 1 uM, Selectivity number of off-targets 0.0, Selectivity number of targets 1.0, Source Knowledge inhouse
[23] = molecular target: T1, Hepatocyte nuclear factor 4-alpha (Homo sapiens); test: Selectivity interaction (Reporter gene assay) EUB0000571a HNF4A; design: recommended concentration 1 uM
[24] = molecular target: T2, Nuclear receptor subfamily 2 group C member 1 (Homo sapiens); test: Selectivity interaction (Reporter gene assay) EUB0000571a NR2C1; design: recommended concentration 1 uM
[25] = molecular target: Nuclear receptor subfamily 2 group E member 1 (Homo sapiens) (UniProt Q9Y466); test: Selectivity interaction (Reporter gene assay) EUB0000571a NR2E1; design: recommended concentration 1 uM
[26] = molecular target: Nuclear receptor subfamily 4immunitygroup A member 1 (Homo sapiens) (UniProt P22736); test: Selectivity interaction (Reporter gene assay) EUB0000571a NR4A1; design: recommended concentration 1 uM
[27] = molecular target: Steroidogenic factor 1 (Homo sapiens) (UniProt Q13285); test: Selectivity interaction (Reporter gene assay) EUB0000571a NR5A1; design: recommended concentration 1 uM
[28] = molecular target: T3, Alpha trans-inducing protein (Human alphaherpesvirus 1); test: Selectivity interaction (Reporter gene assay) EUB0000571a UL48; design: recommended concentration 1 uM
[29] = molecular target: T4, Retinoic acid receptor RXR-alpha (Homo sapiens); test: Selectivity interaction (Reporter gene assay) EUB0000571a RXRA; design: recommended concentration 1 uM; details: reference bexarotene 1 uM, Selectivity number of off-targets 0.0, Selectivity number of targets 1.0, Source Knowledge inhouse

T3 sequence (A0A5J6DW59 as listed by the source): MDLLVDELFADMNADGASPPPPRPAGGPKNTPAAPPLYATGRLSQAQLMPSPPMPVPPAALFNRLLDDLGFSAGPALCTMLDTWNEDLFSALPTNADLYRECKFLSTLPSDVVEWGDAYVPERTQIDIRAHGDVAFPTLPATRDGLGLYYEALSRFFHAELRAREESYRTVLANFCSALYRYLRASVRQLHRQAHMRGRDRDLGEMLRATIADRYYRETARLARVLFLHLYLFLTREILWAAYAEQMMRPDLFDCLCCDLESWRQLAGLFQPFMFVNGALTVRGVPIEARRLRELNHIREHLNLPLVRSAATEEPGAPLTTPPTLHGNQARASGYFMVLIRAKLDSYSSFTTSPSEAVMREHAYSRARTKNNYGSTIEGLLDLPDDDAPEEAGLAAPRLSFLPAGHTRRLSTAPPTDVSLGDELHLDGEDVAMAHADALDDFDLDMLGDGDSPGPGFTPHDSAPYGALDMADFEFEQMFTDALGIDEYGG
Sequence of Nuclear receptor subfamily 2 group E member 1 (Homo sapiens) (Q9Y466 whole entry): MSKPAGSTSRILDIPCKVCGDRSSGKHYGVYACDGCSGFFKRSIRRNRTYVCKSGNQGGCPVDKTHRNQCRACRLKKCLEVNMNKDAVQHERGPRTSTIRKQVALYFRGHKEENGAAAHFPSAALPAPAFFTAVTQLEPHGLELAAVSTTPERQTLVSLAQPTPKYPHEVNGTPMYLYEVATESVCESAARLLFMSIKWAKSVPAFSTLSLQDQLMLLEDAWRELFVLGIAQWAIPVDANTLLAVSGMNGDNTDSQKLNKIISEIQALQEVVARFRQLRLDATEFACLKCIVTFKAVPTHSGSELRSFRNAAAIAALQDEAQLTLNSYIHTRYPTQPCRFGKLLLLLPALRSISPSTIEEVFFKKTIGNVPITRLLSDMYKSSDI
Sequence of Nuclear receptor subfamily 4immunitygroup A member 1 (Homo sapiens) (P22736 whole entry): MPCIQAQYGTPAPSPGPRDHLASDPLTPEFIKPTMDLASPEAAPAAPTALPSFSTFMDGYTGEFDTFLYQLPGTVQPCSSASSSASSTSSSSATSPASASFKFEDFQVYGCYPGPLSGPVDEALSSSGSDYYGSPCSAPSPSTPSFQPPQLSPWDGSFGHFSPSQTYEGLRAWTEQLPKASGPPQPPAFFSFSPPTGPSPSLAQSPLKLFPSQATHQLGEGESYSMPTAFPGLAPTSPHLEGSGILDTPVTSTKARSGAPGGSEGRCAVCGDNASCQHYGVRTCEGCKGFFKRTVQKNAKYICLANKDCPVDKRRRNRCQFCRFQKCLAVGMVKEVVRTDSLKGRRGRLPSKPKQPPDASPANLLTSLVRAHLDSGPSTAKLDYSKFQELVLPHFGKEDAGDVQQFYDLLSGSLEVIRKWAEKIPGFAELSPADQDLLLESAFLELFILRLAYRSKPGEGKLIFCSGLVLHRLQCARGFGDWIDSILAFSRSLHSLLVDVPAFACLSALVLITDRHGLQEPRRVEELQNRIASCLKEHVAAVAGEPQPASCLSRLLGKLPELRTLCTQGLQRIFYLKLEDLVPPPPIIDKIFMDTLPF
Sequence of Steroidogenic factor 1 (Homo sapiens) (Q13285 whole entry): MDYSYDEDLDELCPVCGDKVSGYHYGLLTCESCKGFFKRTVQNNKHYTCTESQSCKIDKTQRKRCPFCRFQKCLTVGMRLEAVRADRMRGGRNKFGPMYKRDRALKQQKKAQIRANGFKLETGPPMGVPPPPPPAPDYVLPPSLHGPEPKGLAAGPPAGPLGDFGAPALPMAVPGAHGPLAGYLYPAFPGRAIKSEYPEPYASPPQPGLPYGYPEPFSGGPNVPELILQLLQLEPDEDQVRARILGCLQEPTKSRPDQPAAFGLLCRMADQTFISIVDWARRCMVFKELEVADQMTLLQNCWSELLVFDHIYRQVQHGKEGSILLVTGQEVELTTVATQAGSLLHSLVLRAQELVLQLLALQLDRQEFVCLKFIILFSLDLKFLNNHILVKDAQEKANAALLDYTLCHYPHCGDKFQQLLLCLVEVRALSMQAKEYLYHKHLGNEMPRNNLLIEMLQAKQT

- Fold activation [1]: 1.02
- Fold activation [2]: 1.3
- Fold activation [3]: 1.46
- Fold activation [4]: 1.03
- Fold activation [5]: 1.12
- P-value [6]: 1.36e-05
- Relative activation [7]: 0.671%
Compound: CC(C)OC(=O)C1=CN(C(=O)c2ccc(F)c(F)c2)CC(C)(C)c2c1[nH]c1ccccc21

- Fold activation [8]: 3.39
- Fold activation [9]: 1.11
- Fold activation [10]: 1.13
- Remaining activity [11]: 0.846
- Fold activation [12]: 1.08
- Fold activation [13]: 1.08
- P-value [14]: 0.0017
- Relative activation [15]: 0.86%
Compound: CC(C)c1ccc(CC(=O)N2CCC[C@@H](c3cccc(OC(C)(C)C(=O)O)c3)C2)cc1

- Fold activation [16]: 1.04
- Fold activation [17]: 1.14
- Fold activation [18]: 1.33
- Fold activation [19]: 1.04
- Remaining activity [20]: 0.952
- P-value [21]: 0.000527
- Relative activation [22]: 0.683%
Compound: CO[C@H]1/C=C/O[C@@]2(C)Oc3c(C)c(O)c4c(O)c(c(/C=N/N5CCN(C)CC5)c(O)c4c3C2=O)NC(=O)/C(C)=C\C=C\[C@H](C)[C@H](O)[C@@H](C)[C@@H](O)[C@@H](C)[C@H](OC(C)=O)[C@@H]1C

- Fold activation [23]: 1.06
- Fold activation [24]: 1.38
- Remaining activity [25]: 0.849
- Remaining activity [26]: 0.966
- Fold activation [27]: 1.22
- P-value [28]: 0.0005
- Relative activation [29]: 0.67%
Compound: COC(=O)C(Cc1ccc(OCCn2c(=O)sc3cc(C(=O)c4ccccc4)ccc32)cc1)C(=O)OC
